In data set [1] the test system is auxin sensor construst. Briefly: Luciferase activity measurement with auxin sensor construct (firefly/renilla ratio). In kind it is cell-based. The text has this:
Our further aim to combine PPTT with amiRNA and other functional screenings such as split-GFP, split-YFP etc. Since co-expression of vectors works perfect, split screenings could be done straight away using confirmed interacting pair. Transformation with the luciferase reporter and subsequent luciferase activity measurements were successfully tested using auxin sensor construst (FIG. 19).

In data set [2] the test system is PIN1. Briefly: Expression of amiR^PIN1 in stable transgenic lines, plant phenotypes. In kind it is in vivo, Arabidopsis (Col-0 wild-type background). Particulars: independent lines.
Data set [3] concerns protoplasts from wild type tobacco. Briefly: Quantitative analysis of auxin mediated cell expansion of immobilised tobacco protoplasts (automated imaging). In kind it is cell-based. Particulars: auxin 0 to 50 μM, at least 200 cells per group. The text has this:
We compared the effect of auxin concentration on cell elongation over a continuous period (4-6 days) using tobacco leaf protoplasts from wild type tobacco and from the tobacco line overexpressing AtPIN8 translationally fused with Venus fluorescent marker protein (PIN8VenusOx). Two strategies were used: • effect of PIN5 and PIN8 expression on cell elongation using transient transformation with dried DNA, protoplast immobilization and culture with manual cell imaging and tracking. • effect of auxin concentration (0, 1 pM, 10 pM, 100 pM, 500 pM, 1 nM, 10 nM, 100 nM, 500 nM, 1 μM, 2.5 μM, 5 μM, 10 μM, 25 μM and 50 μM) and quantitative analysis of cell elongation to compare wild type and PIN8VenusOx protoplasts using automated imaging (every 24 h for 4 days, 5 reference points) and computational image analysis.
Protoplasts were isolated and immobilized using our procedure described in the current patent application. Culture medium with final auxin concentration of 0, 1 pM, 10 pM, 100 pM, 500 pM, 1 nM, 10 nM, 100 nM, 500 nM, 1 μM, 2.5 μM, 5 μM. 10 μM. 25 μM and 50 μM was used for washing steps and cell culture afterwards in corresponding wells. […] This experiment allowed to extract quantitative information for hundreds cells per group, the whole experiment was performed in a single 96-well plate. […]

From patent US11261454B2, “Method for introducing a polynucleotide into non-adhesively growing plant cells” (ScreenSYS GmbH, priority 2010, dated 2022) come the findings set out here.

On to `O=C(O)Cc1cccc2ccccc12` [NAA], for which the “effect on firefly/renilla ratio” value in data set [1] was “Concentration-dependent effect”.

Consider “amiR^P33: artificial miRNA TACGATTTGAACCATGAGGCC, SEQ ID NO:10 (expressed or natural sequence)”, for which the “rosette leaf phenotype of transgenic plants” value in data set [2] (2 weeks after germination) is listed as “Altered phyllotaxis pattern of rosette leaves”. Further, the “shoot phenotype of transgenic lines” value in data set [2] is “Altered shoot phyllotaxis and pin1-like shoot phenotypes”.

For auxin, the “cell expansion of developing protoplasts” value in data set [3] is recorded as “Concentration-depended cell expansion”.
